Laboratory results taken from patent publication US6943147B2, “Cancer treatment using proANP peptides” (University of South Florida, priority 2003, dated 2005).

Columns and labels:
[1] = test system: pancreatic adenocarcinoma cell line, ATCC number CRL-2119; assay: Number of pancreatic adenocarcinoma cells in culture, counted by microscope; assay type: cell-based, human
Description: The pancreatic adenocarcinoma cell line, ATCC number CRL-2119, was derived in 1985 from a nude mouse xenograft of a primary tumor removed from the head of the pancreas. It is a moderate to well-differentiated pancreatic adenocarcinoma of ductal origin. These pancreatic adenocarcinoma cells are stimulated to proliferate in culture by insulin, insulin-like growth factor I (IGF-I), epidermal growth factor (EGF), and transforming growth factor alpha (TGF alpha). These adenocarcinoma cells contain significant concentrations of tumor-associated antigens CEA, CA 125, and CA 19-9. In culture, these adenocarcinoma cells form monolayers of morphologically heterogeneous polar epithelial cells. These cells are tumorgenic in that they form tumors in athymic nude mice at the site of inoculation that are histologically similar to the tumor of origin.
Propagation of these cells was in Dulbecco's modified Eagle's plus Ham's F12-A 1:1 mixture of Dulbecco's modified Eagle's medium and Ham's F12 medium containing 1.2 g/L of sodium bicarbonate (Sigma Chemical Co., St. Louis, Mo.) supplemented with 15 mM HEPES and fetal bovine serum, 10%, at a temperature of 37° C. as recommended by the ATCC.
These pancreatic adenocarcinoma cells were subcultured (passaged) by removing spent (i.e., old) medium by aspiration, and then adding calcium and magnesium free Hank's Balanced Salt Solution with 0.25% trypsin and 0.03% ethylenediaminetetracetic acid (EDTA). The culture was allowed to sit at room temperature for 2 to 5 minutes. Fresh medium was added to the adenocarcinoma cells which were dispensed into new flasks, with subculture every 6 to 8 days. The growth medium was changed every three days.
After these adenocarcinoma cells were subcultured for 24 hours, they were then seeded to coverslips and transferred to 24 microwell plates (NUCOLON, Roskilde Denmark), with 1 ml Dulbeco Modified Eagle's (DME)/[…] nutrient culture media (Sigma Chemical Co.) with 10% fetal bovine serum (Atlanta Biologicals, Norcross, Ga.). After 24 hours, wells were washed twice with Dulbecco's Modified Eagle's/Ham's F12 with 0.1% bovine serum albumin (Sigma-Aldrich, St. Louis, Mo.) and allowed to incubate in this serum free medium for an additional 24 hour period of serum deprivation. Serum-free media was utilized to remove all variables (EGF, etc.) present in serum in order that interpretation of any data obtained would be straightforward. After 24 hours of serum deprivation, media volume was reduced to 250 μL per well with or without the respective peptide hormones at their 1 μM concentrations (1% of this volume). The adenocarcinoma cells were then incubated for various periods of time (24, 48, 72, and 96 hours).At the end of the above time periods, hematoxylin was added for 5 minutes to make the cells more visible for counting, and then they were washed for 5 minutes. The coverslips were then placed face down on microscope slides with the addition of 6 μl of histologic grade phosphate buffered saline (PBS)/I-glycine that had been filtered immediately before use with a 0.22 μm polyethersulfone, nonpyrogenic, sterile, low protein binding membrane (Corning 43117, Corning Inc., Corning, N.Y.). The number of adenocarcinoma cells were then counted with a cell counter evaluating ten fields of the microscope slide at 40× along the X-axis with an Olympus BH-2 microscope (Atlanta, Ga.). This evaluation was repeated on six separate occasions with the number of adenocarcinoma cells reflecting 60 observations for each group, i.e., 60 observations for controls and 60 observations for each of the four groups with respective peptide hormones. The only variable in this investigation was whether one of the four peptide hormones was added to the pancreatic adenocarcinoma cells. Otherwise all the adenocarcinoma cells were treated the same, i.e., with same culture medium, time of incubation, and processing of cells for the various investigations. […]

[2] = test system: pancreatic adenocarcinoma cells; assay: DNA synthesis by bromodeoxyuridine (BrdU) incorporation into adenocarcinoma cells; assay type: cell-based, human; conditions: 1 μM, 24 hours
Description: To investigate whether these peptide hormones were inhibiting DNA synthesis and cell proliferation bromodeoxyuridine (BrdU) incorporation into the adenocarcinoma cells was utilized. BrdU was from BD Bioscience, San Jose, Calif. DNA synthesis and doubling of the genome take place during the synthetic or S phase. BrdU is a thymidine analog incorporated into nuclear DNA during the S phase of the cell cycle. Immunohistochemical methods use BrdU also as a marker of cell proliferation in cancer biology studies. After 24 hours in culture with 1 μM of LANP, vessel dilator, kaliuretic peptide, or ANP, respectively, or with no peptide hormone (i.e., control), BrdU in a final concentration of 10 μM in the cell culture medium was added for 45 minutes—which is time in which the cells are in the logarithmic phase of cell proliferation. For immunohistochemistry, a BrdU in situ detection kit from Becton Dickinson Immunocytochemistry Systems, San Jose, Calif., was utilized.
After the 45 minutes with BrdU, the adenocarcinoma cells were washed three times in phosphate buffered saline (PBS), five minutes each. This was followed by placing the cells in a −80° C. freezer for five minutes and then 100% methanol was added at 5° C. in order for the cells to become permeable enabling the anti-BrdU antibody to reach the nucleus of the cell. The cells were then washed again in PBS before 100 μl of biotinylated anti-BrdU antibody was added. The coverslips were then incubated in a humidified chamber for one hour. After this incubation, the slides were rinsed in PBS, two minutes each. Then streptavidin-horseradish peroxidase (HRP) was added to each coverslip. The cells were then incubated for 30 minutes. Streptavidin-HRP binds to biotinylated anti-BrdU and HRP is used with addition of diaminobenzidine (DAB) substrate system to visualize BrdU incorporation into the adénocarcinoma cells. After the 30 minute incubation with streptavidin-HRP, the coverslips were rinsed in PBS, two minutes each time, before adding the DAB substrate solution, which contains DAB chromagen and DAB buffer, for five minutes. The coverslips were then rinsed in water, two minutes each time before counterstaining the slides with hematoxylin for 60 seconds followed by a thorough rinsing in water for five minutes. The incorporation of the BrdU stain into the nucleus was then counted using a Nikon Inverted Diaphot-TMD Microscope (Tokyo, Japan). The number of stained nuclei was compared in the four peptide hormone groups to the positive control group. The negative control for these studies was provided by Becton Dickinson Immunocytochemistry Systems.
BrdU has an advantage over ^3H-thymidine incorporation in that it takes less time and provides high resolution.
Cyclic GMP and prostaglandin E2 are the two known mediators of all of the previously described biologic effects of these four peptide hormones. All four of these peptide hormones-induced vasodilation of vasculature is mediated by increased cyclic GMP concentrations via enhancing guanylate cyclase activity. […] ANPs effects in the kidney are thought to be mediated by cyclic GMP. Each of these peptide hormones increase cyclic GMP while simultaneously dilating vasculature. 8 bromo-cyclic GMP reproduces these vasodilatory effects. For the present investigation of the mechanism of these peptide hormones' ability to inhibit DNA synthesis in cancer cells, 8-bromoguanosine 3′,5′-cyclic monophosphate (i.e., 8-bromo cyclic GMP, Sigma-Aldrich Co., St. Louis, Mo.) was utilized. 8-bromo cyclic GMP is a cell-permeable analog of cyclic GMP. 8-bromo cyclic GMP effects on DNA synthesis were investigated in dose-response curves with cyclic GMP concentrations ranging from 100 pM to 5 mM.
Prostaglandin E2, i.e., (5Z, 11α, 13E, 15S)-11, 15-dihydro-9-oxo-prosta-5, 13-dien-I-oic acid was purchased from Sigma-Aldrich, St. Louis, Mo. […]

For “vessel dilator: a.a. 31-67 of the 126 a.a. ANP prohormone; peptide hormone from Peninsula Laboratories”, the “decrease in the number of adenocarcinoma cells” value (from here on “decrease in the number”) ([1]; 1 μM, 24 hours, vs untreated cells) was 65%, the “number of adenocarcinoma cells” value ([1]; 1 μM, 24 hours, untreated 183.4+/−8) was 63.8+/−4 cells per high powered field and the “number of cancer cells compared to controls” value ([1]; 1 μM, 48 hours) was 68%. For the same substance, the “decrease in the number” value ([1]; 1 μM, 72 hours, vs untreated cells) was 70%, the “decrease in the number” value ([1]; 1 μM, 96 hours, vs untreated cells) was 70% and the “decrease in the number” value ([1]; time not stated) was 70%. For the same substance, the “inhibition of DNA synthesis” value [2] was 91%.
